In one series the test system is SW620M. As to the kind of experiment: Neutral red uptake antiproliferative assay, MDR line SW620M. The series is classed as cell-based, human. Particulars: for IC50: exposure time 72 h, n = 3, ABCC1-overexpressing MDR line; for activity factor IC50(1)/IC50(3a–4d), SW620M: vs corresponding amine (R)-1 or (S)-1, 72 h. Summed up:
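Cytotoxicity was measured by neutral red uptake in SW620-derived multidrug-resistant lines, each overexpressing an ABC transporter: ABCG2 in SW620C and SW620Mito, ABCC1 in SW620M, and ABCB1 in SW620D. Values are expressed as a percentage of control.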

Another series has as its system SW620 cells. As to the kind of experiment: ROS generation, dihydrorhodamine 123 oxidation assay. The series is classed as cell-based, human. Particulars: SW620, 1 μM compound, 4 h, DHR123 with 10 μM verapamil; vs control or (R)- and (S)-1. From the text:
Metal complexes often induce reactive oxygen species (ROS) generation in cells,[51] which may increase their cytotoxic activity compared to purely organic molecules. To study the impact of the synthesized compounds on ROS production, we have measured the ROS generation in SW620 cells by the dihydrorhodamine 123 (DHR123) oxidation assay (Figure 9). However, there is no correlation between the antiproliferative potential and the ability of a compound to generate ROS.
Dihydrorhodamine 123 oxidation was used as an indicator of intracellular ROS production. For this purpose, SW620 cells were seeded in 6-well plates at a density of 10^5 cells per well. The cells were left overnight (time needed for them to attach to the surface). Then, 1 μM tested compounds were added along with 1 μM DHR123. Additionally, since DHR123 is a substrate of ABCB1 (which may interfere in this assay), 10 μM verapamil, an inhibitor of this protein, was added. The cells were cultured for an additional 4 h at 37 °C, and then the cells were harvested by trypsinization, resuspended in a complete medium, and analyzed using a LSRII flow cytometer (Becton Dickinson) in a FITC channel (530/30 nm). The results are presented as a percentage of control (median fluorescence in the presence of DMSO).

Series [1] in a line: Stability study in the presence of L-histidine (UV-vis, HPLC-MS). Conditions: 20 μM complex, 0.2 mM L-histidine in water, 0.5 vol % DMSO, followed over 2 h. The series is classed as physicochemical. The text has this: For biological studies, compounds are commonly administered as dimethyl sulfoxide (DMSO) solution to cells cultured in a specific medium such as Dulbecco’s modified Eagle’s medium (DMEM). DMEM consists of numerous organic compounds which may act as ligands for organometallics. Therefore, it is important to know how the compounds behave in such conditions. The two most prominent components of DMEM which may coordinate to half-sandwich complexes are L-cysteine and L-histidine. Both of those amino acids are present in DMEM at 0.2 mM concentration, so we studied how the complexes interact with them using UV–vis spectroscopy and HPLC-MS analysis. The DMSO solutions of complexes were added to the aqueous solution of L-cysteine or L-histidine to achieve a complex concentration of 20 μM while keeping the DMSO concentration at 0.5 vol %. […] HPLC-MS analysis confirmed the formation of an additional peak at τ = 0.95 min with m/z 714 assigned to [M-Cl-PF6 + HCOOH]^+; additionally, the intensity of peaks corresponding to 3c is lower (Figure S26). […] The intensity of absorbance peaks at λ = 287 and λ = 372 nm in the presence of cysteine is decreasing, while the intensity of peaks at λ = 304 and λ = 318 nm is almost intact.
The stability of 3a–d was studied in the presence of L-cysteine or L-histidine. 3a–d were dissolved in DMSO and added to 0.2 mM aqueous solution of L-cysteine or L-histidine to achieve the complex concentration of 20 μM while keeping the DMSO concentration at 0.5 vol %. UV–vis spectra were recorded over 2 h with 10 min intervals.

In general, IC50 refers to the concentration that gives 50% inhibition. In the case of `CC(C)[C@@H](N=Cc1ccccn1)c1nc2cc(Cl)ccc2c(=O)n1Cc1ccccc1.Cc1ccc(C(C)C)cc1.F[P-](F)(F)(F)(F)F.[Cl-].[Ru+2]` [Compound 3a, [(cym)Ru((R)-2)Cl]PF6], in the series on SW620M, the IC50 turned out to be 3.45 µM and the “activity factor IC50(1)/IC50(3a–4d), SW620M” value is “(0.070)”. For the same molecule, in the series with SW620 cells, the “ROS generation (in words)” value is “increase the level of ROS”. Also, the “reaction with L-histidine (stability)” value in series [1] is listed as “neither ruthenium 3a nor the osmium complex 3b reacts with those amino acids within 2 h”.

For the molecule `CC(C)[C@@H](N=Cc1ccccn1)c1nc2cc(Cl)ccc2c(=O)n1Cc1ccccc1.Cc1ccc(C(C)C)cc1.F[P-](F)(F)(F)(F)F.[Cl-].[Os+2]` [Compound 3b, [(cym)Os((R)-2)Cl]PF6], in the series on SW620M, the IC50 came to 0.591 µM and the “activity factor IC50(1)/IC50(3a–4d), SW620M” value was “(0.408)”. Also, the “reaction with L-histidine (stability)” value in series [1] is “neither ruthenium 3a nor the osmium complex 3b reacts with those amino acids within 2 h”.

`CC(C)[C@@H](N=Cc1ccccn1)c1nc2cc(Cl)ccc2c(=O)n1Cc1ccccc1.Cc1c(C)c(C)[c-](C)c1C.F[P-](F)(F)(F)(F)F.[Cl-].[Rh+3]` [Compound 3c, [(Cp*)Rh((R)-2)Cl]PF6]: in the series on SW620M, it took 1.18 µM to reach half-maximal inhibition (IC50) and the “activity factor IC50(1)/IC50(3a–4d), SW620M” value is reported as “(0.204)”. Also, the “reaction with L-histidine (stability)” value in series [1] was “A similar effect is observed in the case of L-histidine”.

For `CC(C)[C@@H](N=Cc1ccccn1)c1nc2cc(Cl)ccc2c(=O)n1Cc1ccccc1.Cc1c(C)c(C)[c-](C)c1C.F[P-](F)(F)(F)(F)F.[Cl-].[Ir+3]` [Compound 3d, [(Cp*)Ir((R)-2)Cl]PF6], in the series with SW620M, the IC50 is 0.247 µM and the “activity factor IC50(1)/IC50(3a–4d), SW620M” value was “(0.976)”. Moreover, the “reaction with L-histidine (stability)” value in series [1] was “reacts with both L-cysteine and L-histidine (Figure 6) in 40 min”.

The values above are taken from paper PMC11044151, “Development of Half-Sandwich Ru, Os, Rh, and Ir Complexes Bearing the Pyridine-2-ylmethanimine Bidentate Ligand Derived from 7-Chloroquinazolin-4(3H)-one with Enhanced Antiproliferative Activity” (ACS Omega, 2024).
